According to PubChem BioAssay (NCI):
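Protocol summary: plate cells (96-well), add compound at 5 concentrations, incubate 48 h, interpolate endpoints linearly. GI50 = concentration required for 50% inhibition of growth. TGI: concentration producing complete growth inhibition.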

Legend:
Experiment in all cases: DTP human tumour cell line panel, 48 h
[1] = tested on: BT-549 breast
[2] = tested on: NCI-H23 lung
[3] = tested on: NCI-H226 lung
[4] = tested on: UACC-257 melanoma
[5] = tested on: SK-OV-3 ovarian
[6] = tested on: SR leukemia
[7] = tested on: DU-145 prostate
[8] = tested on: RPMI-8226 leukemia
[9] = tested on: CAKI-1 renal
[10] = tested on: CCRF-CEM leukemia
[11] = tested on: SK-MEL-2 melanoma
[12] = tested on: SN12C renal
[13] = tested on: M14 melanoma
[14] = tested on: HL-60(TB) leukemia
[15] = tested on: SF-268 CNS
[16] = tested on: HT29 colon
[17] = tested on: COLO 205 colon
[18] = tested on: U251 CNS
[19] = tested on: EKVX NSCLC
[20] = tested on: A498 renal
[21] = tested on: HOP-62 NSCLC
[22] = tested on: NCI-H460 lung
[23] = tested on: MOLT-4 leukemia
[24] = tested on: K-562 leukemia
[25] = tested on: HOP-92 NSCLC
[26] = tested on: LOX IMVI melanoma
[27] = tested on: HS 578T breast
[28] = tested on: NCI/ADR-RES ovarian
[29] = tested on: OVCAR-8 ovarian
[30] = tested on: SNB-75 CNS
[31] = tested on: MDA-MB-231 breast
[32] = tested on: OVCAR-4 ovarian
[33] = tested on: UACC-62 melanoma
[34] = tested on: OVCAR-5 ovarian
[35] = tested on: NCI-H522 lung
[36] = tested on: ACHN renal
[37] = tested on: SK-MEL-28 melanoma
[38] = tested on: HCT-116 colon
[39] = tested on: A549 NSCLC
[40] = tested on: PC-3 prostate
[41] = tested on: OVCAR-3 ovarian
[42] = tested on: KM12 colon
[43] = tested on: MDA-MB-435
[44] = tested on: SW-620 colon
[45] = tested on: MALME-3M melanoma
[46] = tested on: IGROV1 ovarian
[47] = tested on: 786-0 renal
[48] = tested on: HCC-2998 colon
[49] = tested on: SK-MEL-5 melanoma
[50] = tested on: UO-31 renal
[51] = tested on: SF-295 CNS
[52] = tested on: MCF7 breast
[53] = tested on: SF-539 CNS
[54] = tested on: HCT-15 colon
[55] = tested on: TK-10 renal
[56] = tested on: SNB-19 CNS
[57] = tested on: RXF 393 renal

## C/C=C1\NC(=O)[C@H](Cc2ccccc2)NC(=O)[C@@H](C(C)C)NC(=O)[C@@H]([C@@H](C)CC)NC(=O)[C@H](NC(=O)[C@H](NC(=O)[C@H](CCCN)NC(=O)[C@H]2CCCN2C(=O)[C@H](NC(=O)[C@@H](NC(=O)[C@@H](NC(=O)[C@H](NC(=O)CCCC(C)C)C(C)C)[C@@H](C)O)C(C)C)C(C)C)[C@@H](C)CC)[C@@H](C)OC(=O)[C@H](C(C)C)NC1=O
[1]
  TGI: 12000 nM
[2]
  TGI: 15200 nM
[3]
  TGI: 4240 nM
[4]
  GI50: 1020 nM
  TGI: 2840 nM

## N=C(N)c1ccc(-c2ccc(-c3ccc(Cl)cc3Cl)s2)cc1F
[5]
  GI50: 3050 nM
  TGI: 17500 nM
[6]
  GI50: 1420 nM
  TGI: > 100000 nM
[7]
  GI50: 1780 nM
  TGI: 3160 nM
[8]
  GI50: 2070 nM
  TGI: 4570 nM
[9]
  GI50: 1630 nM
  TGI: 2990 nM
[10]
  GI50: 1800 nM
  TGI: 4670 nM
[11]
  GI50: 2210 nM
  TGI: 5200 nM

## COc1cccc(C2C(C#N)=C(N)Oc3cc(N)ccc32)c1 (configuration not stated)
[12]
  GI50: 689 nM
  TGI: > 100000 nM
[13]
  GI50: 341 nM
  TGI: > 100000 nM
[1]
  GI50: 351 nM
  TGI: 54300 nM
[2]
  GI50: 571 nM
  TGI: > 100000 nM
[14]
  GI50: 350 nM
  TGI: 745 nM
[15]
  GI50: 1570 nM
  TGI: > 100000 nM
[16]
  GI50: 360 nM
  TGI: 5030 nM
[17]
  GI50: 385 nM
  TGI: 2090 nM
[18]
  GI50: 369 nM
[19]
  GI50: 854 nM
  TGI: > 100000 nM
[20]
  GI50: 203 nM
[21]
  GI50: 692 nM
  TGI: > 100000 nM
[5]
  GI50: 400 nM
  TGI: 3500 nM
[6]
  GI50: 300 nM
  TGI: > 100000 nM
[7]
  GI50: 710 nM
  TGI: 34000 nM
[22]
  GI50: 368 nM
  TGI: > 87000 nM
[23]
  GI50: 563 nM
  TGI: > 52300 nM
[8]
  GI50: 412 nM
  TGI: > 69000 nM
[24]
  GI50: 396 nM
  TGI: > 100000 nM
[25]
  GI50: 310 nM
  TGI: 58300 nM
[9]
  GI50: 470 nM
  TGI: > 100000 nM
[26]
  GI50: 506 nM
  TGI: > 100000 nM
[27]
  GI50: 314 nM
  TGI: > 100000 nM
[28]
  GI50: 346 nM
  TGI: 4380 nM
[29]
  GI50: 649 nM
  TGI: > 60900 nM
[30]
  GI50: 293 nM
  TGI: > 100000 nM
[31]
  GI50: 1290 nM
  TGI: 59600 nM
[32]
  GI50: 5140 nM
  TGI: > 100000 nM
[3]
  GI50: 5520 nM
  TGI: > 100000 nM
[33]
  GI50: 368 nM
  TGI: > 100000 nM
[34]
  GI50: 1430 nM
  TGI: > 100000 nM
[35]
  GI50: 242 nM
  TGI: 771 nM
[36]
  GI50: 762 nM
  TGI: > 100000 nM
[37]
  GI50: 663 nM
  TGI: > 100000 nM
[38]
  GI50: 383 nM
  TGI: > 72200 nM
[10]
  GI50: 320 nM
[39]
  GI50: 572 nM
  TGI: > 100000 nM
[40]
  GI50: 509 nM
  TGI: > 100000 nM
[41]
  GI50: 337 nM
  TGI: 1030 nM
[42]
  GI50: 442 nM
  TGI: 45900 nM
[43]
  GI50: 138 nM
  TGI: 672 nM
[44]
  GI50: 312 nM
  TGI: > 100000 nM
[45]
  GI50: 632 nM
  TGI: > 100000 nM
[46]
  GI50: 854 nM
  TGI: > 100000 nM
[47]
  GI50: 632 nM
  TGI: > 100000 nM
[11]
  GI50: 397 nM
  TGI: > 100000 nM
[48]
  GI50: 820 nM
  TGI: > 100000 nM
[4]
  GI50: 319 nM
  TGI: > 100000 nM
[49]
  GI50: 396 nM
  TGI: > 61800 nM
[50]
  GI50: 858 nM
  TGI: > 100000 nM
[51]
  GI50: 376 nM
  TGI: > 100000 nM
[52]
  GI50: 314 nM
  TGI: > 100000 nM
[53]
  GI50: 343 nM
  TGI: 1370 nM
[54]
  GI50: 385 nM
  TGI: > 100000 nM
[55]
  GI50: 2830 nM
  TGI: > 100000 nM
[56]
  TGI: > 100000 nM

## C(=C\c1n(Cc2ccc3ccccc3c2)c(-c2ccccc2)c(-c2ccccc2)[n+]1Cc1ccc2ccccc2c1)/c1ccccc1
[2]
  GI50: 257 nM
  TGI: 919 nM
[14]
  GI50: 200 nM
  TGI: 635 nM
[16]
  GI50: 142 nM
  TGI: 1090 nM
[6]
  GI50: 313 nM
  TGI: > 100000 nM
[23]
  GI50: 292 nM
  TGI: 1260 nM
[8]
  GI50: 75.8 nM
  TGI: 621 nM
[24]
  GI50: 222 nM
  TGI: 5000 nM
[36]
  GI50: 239 nM
  TGI: 591 nM
[10]
  GI50: 406 nM
  TGI: 2090 nM
[57]
  GI50: 260 nM
  TGI: 1140 nM
